Measurements published in ChEMBL document CHEMBL5113454, “Design, synthesis, and bioactivity study on Lissodendrins B derivatives as PARP1 inhibitor” (Bioorg Med Chem, 2022).
The source made the active and inactive calls. No cut-off for these calls is given here.

Legend:
[1] = tested on: MDA-MB-436; assay: Induction of DNA damage in BRCA1-deficient human MDA-MB-436 cells at 0.1 to 15 uM assessed as increase in accumulation of DNA double-strand breaks measuring gamma-H2AX levels by Western blot analysis; type: functional, cell-based; conditions: dose 0.1-15 µM
[2] = tested on: MDA-MB-436; assay: Antiproliferative activity against human MDA-MB-436 cells after 7 days by resazurin reduction assay; conditions: MDA-MB-436, 168 h
[3] = tested on: MCF7; assay: Induction of DNA damage in human MCF7 cells expressing BRCA1 at 0.1 to 15 uM assessed as increase in accumulation of DNA double-strand breaks measuring gamma-H2AX levels by Western blot analysis; type: functional, cell-based; conditions: dose 0.1-15 µM
[4] = tested on: MDA-MB-436; assay: Cell cycle arrest in BRCA1-deficient human MDA-MB-436 cells assessed as accumulation at S phase at 1 uM measured after 24 hrs by propidium iodide (PI) based FACS analysis (reference value: 27.4%); type: functional
[5] = tested on: HCC1937; assay: Cell cycle arrest in BRCA1-deficient human HCC1937 cells assessed as accumulation at G1 phase at 15 uM measured after 24 hrs by propidium iodide (PI) based FACS analysis (reference value: 31.6%); type: functional
[6] = tested on: HCC1937; assay: Cell cycle arrest in BRCA1-deficient human HCC1937 cells assessed as accumulation at S phase at 5 uM measured after 24 hrs by propidium iodide (PI) based FACS analysis (reference value: 26%); type: functional
[7] = tested on: MDA-MB-436; assay: Cell cycle arrest in BRCA1-deficient human MDA-MB-436 cells assessed as accumulation at G2 phase at 1 uM measured after 24 hrs by propidium iodide (PI) based FACS analysis (reference value: 17.6%); type: functional
[8] = tested on: HCC1937; assay: Cell cycle arrest in BRCA1-deficient human HCC1937 cells assessed as accumulation at G2 phase at 15 uM measured after 24 hrs by propidium iodide (PI) based FACS analysis (reference value: 13.5%); type: functional
[9] = tested on: MDA-MB-436; assay: Cell cycle arrest in BRCA1-deficient human MDA-MB-436 cells assessed as accumulation at S phase at 5 uM measured after 24 hrs by propidium iodide (PI) based FACS analysis (reference value: 27.4%); type: functional
[10] = tested on: HCC1937; assay: Antiproliferative activity against human HCC1937 cells after 7 days by resazurin reduction assay; conditions: HCC1937, 168 h
[11] = tested on: MDA-MB-436; assay: Cell cycle arrest in BRCA1-deficient human MDA-MB-436 cells assessed as accumulation at G1 phase at 0.1 uM measured after 24 hrs by propidium iodide (PI) based FACS analysis (reference value: 26.7%); type: functional
[12] = tested on: HCC1937; assay: Cell cycle arrest in BRCA1-deficient human HCC1937 cells assessed as accumulation at G2 phase at 5 uM measured after 24 hrs by propidium iodide (PI) based FACS analysis (reference value: 13.5%); type: functional
[13] = tested on: MDA-MB-436; assay: Cell cycle arrest in BRCA1-deficient human MDA-MB-436 cells assessed as accumulation at G2 phase at 0.1 uM measured after 24 hrs by propidium iodide (PI) based FACS analysis (reference value: 17.6%); type: functional
[14] = tested on: HCC1937; assay: Cell cycle arrest in BRCA1-deficient human HCC1937 cells assessed as accumulation at G2 phase at 0.1 uM measured after 24 hrs by propidium iodide (PI) based FACS analysis (reference value: 13.5%); type: functional
[15] = tested on: HCC1937; assay: Cell cycle arrest in BRCA1-deficient human HCC1937 cells assessed as accumulation at G1 phase at 5 uM measured after 24 hrs by propidium iodide (PI) based FACS analysis (reference value: 31.6%); type: functional
[16] = tested on: HCC1937; assay: Induction of apoptosis in BRCA1-deficient human HCC1937 cells at 0.1 to 15 uM measured after 24 hrs by Annexin V/propidium iodide (PI) based FACS analysis; type: functional, cell-based; conditions: dose 0.1-15 µM
[17] = tested on: MDA-MB-436; assay: Cell cycle arrest in BRCA1-deficient human MDA-MB-436 cells assessed as accumulation at G1 phase at 1 uM measured after 24 hrs by propidium iodide (PI) based FACS analysis (reference value: 26.7%); type: functional
[18] = tested on: HCC1937; assay: Cell cycle arrest in BRCA1-deficient human HCC1937 cells assessed as accumulation at S phase at 1 uM measured after 24 hrs by propidium iodide (PI) based FACS analysis (reference value: 26%); type: functional
[19] = tested on: HCC1937; assay: Cell cycle arrest in BRCA1-deficient human HCC1937 cells assessed as accumulation at S phase at 15 uM measured after 24 hrs by propidium iodide (PI) based FACS analysis (reference value: 26%); type: functional
[20] = tested on: MDA-MB-436; assay: Induction of apoptosis in BRCA1-deficient human MDA-MB-436 cells at 0.1 to 15 uM measured after 24 hrs by Annexin V/propidium iodide (PI) based FACS analysis; type: functional, cell-based; conditions: dose 0.1-15 µM
[21] = tested on: MDA-MB-436; assay: Cell cycle arrest in BRCA1-deficient human MDA-MB-436 cells assessed as accumulation at G1 phase at 5 uM measured after 24 hrs by propidium iodide (PI) based FACS analysis (reference value: 26.7%); type: functional
[22] = tested on: HCC1937; assay: Cell cycle arrest in BRCA1-deficient human HCC1937 cells assessed as accumulation at S phase at 0.1 uM measured after 24 hrs by propidium iodide (PI) based FACS analysis (reference value: 26%); type: functional
[23] = tested on: MDA-MB-436; assay: Cell cycle arrest in BRCA1-deficient human MDA-MB-436 cells assessed as accumulation at S phase at 0.1 uM measured after 24 hrs by propidium iodide (PI) based FACS analysis (reference value: 27.4%); type: functional
[24] = tested on: HCC1937; assay: Cell cycle arrest in BRCA1-deficient human HCC1937 cells assessed as accumulation at G1 phase at 0.1 uM measured after 24 hrs by propidium iodide (PI) based FACS analysis (reference value: 31.6%); type: functional
[25] = tested on: HCC1937; assay: Cell cycle arrest in BRCA1-deficient human HCC1937 cells assessed as accumulation at G1 phase at 1 uM measured after 24 hrs by propidium iodide (PI) based FACS analysis (reference value: 31.6%); type: functional
[26] = tested on: MDA-MB-436; assay: Cell cycle arrest in BRCA1-deficient human MDA-MB-436 cells assessed as accumulation at G2 phase at 15 uM measured after 24 hrs by propidium iodide (PI) based FACS analysis (reference value: 17.6%); type: functional
[27] = tested on: MDA-MB-436; assay: Cell cycle arrest in BRCA1-deficient human MDA-MB-436 cells assessed as accumulation at G1 phase at 15 uM measured after 24 hrs by propidium iodide (PI) based FACS analysis (reference value: 26.7%); type: functional
[28] = tested on: HCC1937; assay: Cell cycle arrest in BRCA1-deficient human HCC1937 cells assessed as accumulation at G2 phase at 1 uM measured after 24 hrs by propidium iodide (PI) based FACS analysis (reference value: 13.5%); type: functional
[29] = tested on: MDA-MB-436; assay: Cell cycle arrest in BRCA1-deficient human MDA-MB-436 cells assessed as accumulation at S phase at 15 uM measured after 24 hrs by propidium iodide (PI) based FACS analysis (reference value: 27.4%); type: functional
[30] = tested on: MDA-MB-436; assay: Cell cycle arrest in BRCA1-deficient human MDA-MB-436 cells assessed as accumulation at G2 phase at 5 uM measured after 24 hrs by propidium iodide (PI) based FACS analysis (reference value: 17.6%); type: functional

For `COc1ccc(C(=O)C(=O)c2c(-c3ccc(OC)cc3)nc(NC(=O)CN3CCc4cc(OC)c(OC)cc4C3)n2C)cc1`, the Activity [1] was “Active”, the IC50 [2] was 12.6 µM and the Activity [3] was “Active”. For the same compound, the Activity [4] was 21.5%, the Activity [5] was 7% and the Activity [6] was 23.2%. For the same compound, the Activity [7] was 25.4%, the Activity [8] was 45.9% and the Activity [9] was 29.1%. For the same compound, the IC50 [10] was 17.8 µM, the Activity [11] was 23.3% and the Activity [12] was 22.4%. For the same compound, the Activity [13] was 17%, the Activity [14] was 18.3% and the Activity [15] was 24.7%. The Activity [16] was “Active”, the Activity [17] was 25.1% and the Activity [18] was 18.7%. For the same compound, the Activity [19] was 17.8%, the Activity [20] was “Active” and the Activity [21] was 10.4%. It also gave an Activity [22] of 19.9%, an Activity [23] of 30.2% and an Activity [24] of 36.6%. The Activity [25] was 32.8%, the Activity [26] was 28.5% and the Activity [27] was 9.85%. For the same compound, the Activity [28] was 21.6%, the Activity [29] was 33.3% and the Activity [30] was 32.8%.
